From patent publication US8741892B2, “Compounds” (Boehringer Ingelheim International GmbH, priority 2011, dated 2014) come the findings set out here.

Structures are written as SMILES. pEC50: −log10 of the molar value.

T1 sequence (P41594 21-1212): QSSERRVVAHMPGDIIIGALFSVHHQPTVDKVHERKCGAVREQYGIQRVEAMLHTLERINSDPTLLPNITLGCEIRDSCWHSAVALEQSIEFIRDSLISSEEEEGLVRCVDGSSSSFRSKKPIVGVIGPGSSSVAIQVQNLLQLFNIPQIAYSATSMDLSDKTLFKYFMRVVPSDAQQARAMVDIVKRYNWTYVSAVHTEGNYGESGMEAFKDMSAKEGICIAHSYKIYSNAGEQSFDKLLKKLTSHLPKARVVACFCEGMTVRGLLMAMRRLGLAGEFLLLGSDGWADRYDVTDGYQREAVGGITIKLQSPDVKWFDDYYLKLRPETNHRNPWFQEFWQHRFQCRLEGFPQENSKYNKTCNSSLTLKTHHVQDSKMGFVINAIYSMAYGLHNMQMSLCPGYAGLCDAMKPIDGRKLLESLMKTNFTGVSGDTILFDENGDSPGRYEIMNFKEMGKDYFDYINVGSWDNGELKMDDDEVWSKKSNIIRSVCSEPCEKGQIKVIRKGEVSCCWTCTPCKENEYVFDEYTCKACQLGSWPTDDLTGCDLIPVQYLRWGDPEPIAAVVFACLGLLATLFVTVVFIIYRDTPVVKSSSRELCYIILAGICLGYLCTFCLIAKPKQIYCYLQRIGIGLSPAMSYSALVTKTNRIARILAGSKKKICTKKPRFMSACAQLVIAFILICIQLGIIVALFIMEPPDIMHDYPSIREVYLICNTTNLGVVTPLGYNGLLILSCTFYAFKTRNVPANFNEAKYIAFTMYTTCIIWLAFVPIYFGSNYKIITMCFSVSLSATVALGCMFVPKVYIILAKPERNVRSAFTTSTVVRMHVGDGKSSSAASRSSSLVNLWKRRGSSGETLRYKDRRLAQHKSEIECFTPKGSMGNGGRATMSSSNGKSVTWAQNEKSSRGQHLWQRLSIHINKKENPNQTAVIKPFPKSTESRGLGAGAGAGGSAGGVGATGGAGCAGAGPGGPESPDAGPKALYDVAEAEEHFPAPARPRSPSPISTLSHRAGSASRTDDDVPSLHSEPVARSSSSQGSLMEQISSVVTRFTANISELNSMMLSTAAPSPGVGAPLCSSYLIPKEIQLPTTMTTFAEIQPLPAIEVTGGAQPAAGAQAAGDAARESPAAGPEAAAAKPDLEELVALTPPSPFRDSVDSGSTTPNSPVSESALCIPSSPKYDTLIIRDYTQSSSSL

The assay addresses T1, human recombinant mGluR5 (Homo sapiens, UniProt P41594).
T1 construct: expressed in transfected cells; host or cells: HEK 293
Description: positive modulation of mGluR5, calcium based FLIPR assay. The following applies: HEK 293 cell line expressing human recombinant mGluR5; EC50 of the modulation from peak Ca fluorescence signal after glutamate at approx. 5% basal stimulation. In outline:
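HEK 293 cells expressing human recombinant mGluR5, Calcium-4 dye-loaded in Ringer solution pH 7.4. Compound (1% DMSO final) preincubated 5 min, then glutamate at ~5% of maximal effect added; peak Ca2+ fluorescence gives EC50 by nonlinear regression, normalized to DMSO (100%) and 10 μM CDPPB (200%) controls.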
In the case of `CCCc1cc(-c2ccc(F)c(C)c2)nn1CC(=O)N1CC=C(c2cc(OC)ncn2)CC1` [Example 7.02.070], the pEC50 is 7.40.

For the compound `CCCc1cc(-c2ccc(F)c(C)c2)nn1CC(=O)N1CC=C(c2ncc(OC)cn2)CC1` [Example 7.02.071], the pEC50 was 7.15.

`Cc1nc2c(s1)CCN(C(=O)Cn1nc(-c3ccc(F)cc3)cc1C(C)C)CC2` [Example 7.02.072]: the pEC50 was 6.60.

Take `CC(C)c1cc(-c2ccc(F)cc2)nn1CC(=O)N1CCc2nc(N)sc2CC1` [Example 7.02.073]: the negative logarithm of the EC50 (pEC50) is 6.20.

With `CCc1cc(-c2ccc(C)c(C)c2)nn1CC(=O)N1CCc2nc(N)sc2CC1` [Example 7.02.074], the pEC50 is 6.77.

Take `CCc1cc(-c2ccc(C)c(C)c2)nn1CC(=O)N1Cc2nc(C)sc2C1` [Example 7.02.075]: the pEC50 was 6.50.

`CCc1cc(-c2ccc(C)c(C)c2)nn1CC(=O)N1CC=C(c2ncc(OC)cn2)CC1` [Example 7.02.076]: the pEC50 is 6.53.

With `CCc1cc(-c2ccc(C)c(C)c2)nn1CC(=O)N1CCC(c2ncc(OC)cn2)CC1` [Example 7.02.077], the pEC50 was 5.74.

As for `CCc1cc(-c2ccc(C)c(C)c2)nn1CC(=O)N1CC=C(c2cc(OC)ncn2)CC1` [Example 7.02.078], the pEC50 was 6.63.

Take `CCc1cc(-c2cccc(C)c2)nn1CC(=O)N1CCc2nc(N)sc2CC1` [Example 7.02.079]: the negative-log EC50 (pEC50) is 6.74.

For the compound `CCc1cc(-c2cccc(C)c2)nn1CC(=O)N1Cc2nc(C)sc2C1` [Example 7.02.080], the pEC50 was 6.49.

On to `CCc1cc(-c2cccc(C)c2)nn1CC(=O)N1CCC(c2ncc(OC)cn2)CC1` [Example 7.02.081], for which the pEC50 is 6.00.

With `CCc1cc(-c2cccc(C)c2)nn1CC(=O)N1CC=C(c2ncc(OC)cn2)CC1` [Example 7.02.082], the pEC50 was 6.54.

As to `CCc1cc(-c2ccc(C)c(C)c2)nn1CC(=O)N1CCc2nc(C)sc2CC1` [Example 7.02.083], the negative-log EC50 (pEC50) was 7.46.

`CCc1cc(-c2cccc(C)c2)nn1CC(=O)N1CCc2nc(C)sc2CC1` [Example 7.02.084]: the pEC50 is 7.14.

Regarding `Cc1nnc(C2CCN(C(=O)Cn3nc(-c4ccc(C)c(C)c4)cc3-c3ccccc3)CC2)o1` [Example 7.02.085], the pEC50 is 7.38.

For `Cc1nc2c(s1)CCN(C(=O)Cn1nc(-c3ccc(C)c(C)c3)cc1-c1ccccc1)CC2` [Example 7.02.086], the pEC50 is 7.96.

As for `COc1cc(C2=CCN(C(=O)Cn3nc(-c4ccc(C)c(C)c4)cc3-c3ccccc3)CC2)ncn1` [Example 7.02.087], the pEC50 was 7.55.

`COc1cnc(C2CCN(C(=O)Cn3nc(-c4ccc(C)c(C)c4)cc3-c3ccccc3)CC2)nc1` [Example 7.02.088]: the pEC50 is 6.60.

For `COc1cnc(C2CCN(C(=O)Cn3nc(-c4ccc(C)c(C)c4)cc3-c3ccccc3)CC2)nc1` [Example 7.02.089], the negative-log EC50 (pEC50) was 7.23.

As for `Cc1nc2c(s1)CN(C(=O)Cn1nc(-c3ccc(C)c(C)c3)cc1-c1ccccc1)C2` [Example 7.02.090], the pEC50 was 7.39.

Consider `COc1cc(C2CCN(C(=O)Cn3nc(-c4ccc(C)c(C)c4)cc3-c3ccccc3)CC2)ncn1` [Example 7.02.091], for which the negative-log EC50 (pEC50) was 6.94.

Take `CCc1cc(-c2ccc(C)c(C)c2)nn1CC(=O)N1CCC(c2cc(OC)ncn2)CC1` [Example 7.02.092]: the pEC50 is 6.43.

For `CCc1cc(-c2cccc(C)c2)nn1CC(=O)N1CC=C(c2cc(OC)ncn2)CC1` [Example 7.02.093], the pEC50 is 6.92.

Consider `Cc1ccc(-c2cc(-c3ccccc3)n(CC(=O)N3CCc4nc(N)sc4CC3)n2)cc1C` [Example 7.02.094], for which the pEC50 is 7.31.

Turning to `Cc1nnc(N2CCN(C(=O)Cn3nc(-c4ccc(F)c(C)c4)cc3-c3ccccc3)CC2)o1` [Example 7.02.095], the negative-log EC50 (pEC50) was 8.22.

Consider `Cc1cc(C2=CCN(C(=O)Cn3nc(-c4ccc(F)c(C)c4)cc3-c3ccccc3)CC2)ncn1` [Example 7.02.096], for which the pEC50 is 8.00.

Regarding `Cc1nc2c(o1)CN(C(=O)Cn1nc(-c3ccc(F)c(C)c3)cc1-c1ccccc1)CC2` [Example 7.02.097], the negative logarithm of the EC50 (pEC50) is 8.10.

Regarding `Cc1cnc(C2CCN(C(=O)Cn3nc(-c4ccc(F)c(C)c4)cc3-c3ccccc3)CC2)o1` [Example 7.02.098], the pEC50 is 7.92.

Regarding `Cc1cc(-c2cc(-c3ccccc3)n(CC(=O)N3CC=C(c4ncc(F)cn4)CC3)n2)ccc1F` [Example 7.02.099], the pEC50 was 7.74.

As to `Cc1cnc(C2=CCN(C(=O)Cn3nc(-c4ccc(F)c(C)c4)cc3-c3ccccc3)CC2)o1` [Example 7.02.100], the negative logarithm of the EC50 (pEC50) is 8.40.

On to `COc1cnc(C2=CCN(C(=O)Cn3nc(-c4ccc(F)c(C)c4)cc3-c3ccccc3)CC2)nc1` [Example 7.02.101], for which the negative-log EC50 (pEC50) was 7.85.

`Cc1cnc(C2=CCN(C(=O)Cn3nc(-c4ccc(F)c(C)c4)cc3-c3ccccc3)CC2)nc1` [Example 7.02.102]: the pEC50 was 7.57.

For `COCCCc1cc(-c2ccc(F)c(C)c2)nn1CC(=O)N1CCc2nc(C)sc2CC1` [Example 7.02.103], the negative-log EC50 (pEC50) is 7.47.

Consider `COCCCc1cc(-c2ccc(F)c(C)c2)nn1CC(=O)N1CCc2nc(N)sc2CC1` [Example 7.02.104], for which the pEC50 is 7.32.

On to `COCCCc1cc(-c2ccc(F)c(C)c2)nn1CC(=O)N1Cc2nc(C)sc2C1` [Example 7.02.105], for which the pEC50 was 6.62.

`Cc1nc2c(o1)CCN(C(=O)Cn1nc(-c3ccc(F)c(C)c3)cc1-c1ccccc1)CC2` [Example 7.02.106]: the negative-log EC50 (pEC50) was 8.00.

As for `CCc1cc(-c2cccc(Cl)c2)nn1CC(=O)N1CC=C(c2ncc(C)o2)CC1` [Example 7.02.107], the negative-log EC50 (pEC50) is 7.41.

Take `CCc1cc(-c2cccc(Cl)c2)nn1CC(=O)N1CCC(c2ncc(C)o2)CC1` [Example 7.02.108]: the pEC50 was 6.90.

For the compound `CCc1cc(-c2cccc(Cl)c2)nn1CC(=O)N1CCc2nc(C)sc2CC1` [Example 7.02.109], the pEC50 is 7.21.

Turning to `CCc1cc(-c2cccc(Cl)c2)nn1CC(=O)N1CCc2nc(N)sc2CC1` [Example 7.02.110], the negative-log EC50 (pEC50) is 6.81.

For `CCc1cc(-c2cccc(Cl)c2)nn1CC(=O)N1Cc2nc(C)sc2C1` [Example 7.02.111], the pEC50 was 6.48.

Consider `CCc1cc(-c2cccc(Cl)c2)nn1CC(=O)N1CCN(c2nnc(C)o2)CC1` [Example 7.02.112], for which the pEC50 is 6.39.

`CCc1cc(-c2cccc(Cl)c2)nn1CC(=O)N1CCC(c2nnc(C)o2)CC1` [Example 7.02.113]: the pEC50 was 6.20.

For `Cc1nnc(C2=CCN(C(=O)Cn3nc(-c4ccc(C)c(C)c4)cc3-c3ccccc3)CC2)o1` [Example 7.02.114], the negative logarithm of the EC50 (pEC50) is 7.54.

`Cc1nnc(C2=CCN(C(=O)Cn3nc(-c4ccc(F)c(C)c4)cc3-c3ccccc3)CC2)o1` [Example 7.02.115]: the negative-log EC50 (pEC50) is 8.10.

For `Cc1ccc(-c2cc(-c3ccccc3)n(CC(=O)N3CCc4nc(C)sc4CC3)n2)nc1` [Example 7.02.116], the pEC50 was 7.68.

For `Cc1ccc(-c2cc(-c3ccccc3)n(CC(=O)N3CCc4nc(N)sc4CC3)n2)nc1` [Example 7.02.117], the pEC50 is 7.18.

In the case of `Cc1ccc(-c2cc(-c3ccccc3)n(CC(=O)N3Cc4nc(C)sc4C3)n2)nc1` [Example 7.02.118], the pEC50 is 6.90.

On to `Cc1nc2c(s1)CCN(C(=O)Cn1nc(-c3ccc(F)c(C)c3)cc1CC(C)C)CC2` [Example 7.02.119], for which the pEC50 is 7.92.
